In brackets after ≈: the same amount, converted by molar mass. Like-named read-outs stand apart in the source and are kept apart here.
Experiments:
MRSA (ATCC 43300) [1] = experiment: Minimal biofilm eradication concentration, MRSA in the biofilm; format: cell-based, methicillin-resistant Staphylococcus aureus; settings: MRSA (ATCC 43300) in the biofilm
Experimental: A biofilm is composed of attached microorganisms enclosed in an extracellular polymeric substance matrix. Bacteria embedded in the biofilm are protected from antibiotic-mediated killing and the immune response. Reports have shown that biofilm formation is an important factor contributing to S. aureus infections of the skin, lung and indwelling medical devices such as catheters. Thus, the effect of SC5005 on MRSA in a biofilm was assayed.

MRSA (ATCC 43300) [2] = experiment: MIC, MRSA ATCC 43300; format: cell-based, methicillin-resistant Staphylococcus aureus; settings: Staphylococcus aureus
S. aureus NCTC 8325 [3] = experiment: MIC, S. aureus NCTC 8325 (CLSI broth microdilution / agar dilution); format: cell-based, Staphylococcus aureus
MRSA ATCC 33592 = experiment: MIC, MRSA ATCC 33592; format: cell-based, methicillin-resistant Staphylococcus aureus; settings: Staphylococcus aureus
S. aureus NCTC 8325 [4] = experiment: Biosynthesis of macromolecules (3H precursor incorporation); format: cell-based, Staphylococcus aureus; settings: 4×MIC for 1 h
Experimental: FIG. 5. Effect of SC5005 and SC5035 on the biosynthesis of macromolecules in S. aureus. […] Meanwhile, ofloxacin (1 mg/L), rifampicin (1 mg/L), erythromycin (2 mg/L), and vancomycin (2 mg/L) were used as control inhibitors for the biosynthesis of DNA, RNA, protein and cell wall, respectively. Data are means of three independent experiments. Error bars represent the SD.
To investigate the mode of action of SC5005, a new derivative, SC5035, with better selectivity of antibacterial activity over cytotoxicity was included in the assays. First, the impacts of these two compounds on the biosynthesis of important macromolecules, including DNA, RNA, protein and cell wall, in S. aureus NCTC 8325 were assessed. Bacteria cells were incubated with [^3H]thymidine to assess DNA synthesis, [^3H] uridine to assess RNA synthesis, [^3H] leucine to assess protein synthesis, and [^3H] N-Acetyl-D-glucosamine to assess cell wall synthesis. The ofloxacin, rifampicin, erythromycin and vancomycin were used as control inhibitor for DNA, RNA, protein, and cell wall biosynthesis, respectively. Inhibition of biosynthesis pathway was determined by a reduction in the radial isotope signal of bacteria.

S. aureus NCTC 8325 [5] = experiment: Intracellular ATP leakage (ATPlite one-step); format: cell-based, Staphylococcus aureus; settings: 4×MIC for 15 min
Experimental: FIG. 6. Intracellular ATP leakage of S. aureus treated with SC5005, SC5035 and antibiotics. […] Data was presented as percentage of intracellular ATP level to that of untreated bacteria cells (considered as 100%). Bars represent the mean, and error bars represent the SD (n=3). ***: p-value <0.001
To investigate whether SC5005 and SC5035 also act on bacterial cell membrane, intracellular ATP levels of S. aureus treated with SC5005, SC5035 and antibiotics for 15 min was determined by using ATPlite one-step assay kit.

S. aureus NCTC 8325 [6] = experiment: Membrane integrity (SYTO 9 / propidium iodide staining); format: cell-based, Staphylococcus aureus; settings: 4×MIC (Triton X-100: 10%) for 15 minutes
Source text: FIG. 7. Membrane integrity of S. aureus after SC5005, SC5035 and five common antibiotics treatment. […] SYTO 9, a green fluorescence dye, stains chromosome of all bacteria cells, regardless of the membrane integrity. In contrast, propidium iodide (PI), a red fluorescence dye, only stains cell with damaged membrane. Thus, bacteria cell with intact membrane can only be stained by SYTO 9, and cell with perforated membrane will be stained by both fluorescence dyes, showing a yellow color in merged images.
To further validate the action mechanism of SC5005 and SC5035, two fluorescence dyes were used for evaluation of membrane integrity of drug treated S. aureus. The propidium iodide dye only stains cells with perforated membrane, while the SYTO 9 stains all cells in spite of membrane integrity.

human red blood cells = experiment: Hemolytic activity; format: cell-based; settings: 1 h, concentration up to 128-fold of MIC against S. aureus
Experimental: FIG. 9. Hemolytic activities of SC5005 and SC5035 on human red blood cell. Human red blood cells were incubated with SC5005 (A) and SC5035 (B) for 1 h followed by measuring the absorption of RBC released hemoglobin at 540 nm with microplate reader. Cell treated with 1% triton X-100 serves as positive control (P.C.; 100% hemolysis), and those treated with normal saline serves as negative control (N.C.) Bars represent the mean, and error bars represent the SD (n=3).
As data shown above, SC5005 and SC5035 can kill bacteria via forming pore in bacterial membrane. To see whether the pore-forming activity of these two compounds is specific for bacterial membrane, the hemolytic activities of these two agents on human red blood cells were accessed.

Human HT-29 cells = experiment: LDH release assay (membrane integrity); format: cell-based; settings: 1 hour, concentration up to 128-fold of MIC against S. aureus
Experimental: FIG. 10. Membrane integrity of human cells treated with SC5005 and SC5035. Human HT-29 cells were treated with SC5005 and SC5035 for 1 hour followed by the evaluation of membrane integrity with LDH release assay. LDH released from HT-29 cells into culture medium was assessed by using CytoTox 96 NonRadioactive Cytotoxicity Assay. Cell treated with 1% triton X-100 serves as positive control (100% release). Bars represent the mean, and error bars represent the SD (n=3).
To further validate the activity of SC5005 and SC5035 on the membrane of human cells, the integrity of cellular membrane of cells treated with these two compounds was assessed by using LDH release assay. Human HT-29 cells were treated with SC5005 and SC5035 for 1 hour, and then the LDH released from cell into culture medium was assayed.

[7] = test system: S. epidermidis ATCC 12228; experiment: MIC, S. epidermidis ATCC 12228; format: cell-based; settings: Staphylococcus epidermidis, ATCC12228
MRSA ATCC 49476 = experiment: MIC, MRSA ATCC 49476; format: cell-based, methicillin-resistant Staphylococcus aureus; settings: Staphylococcus aureus
MRSA SCCmec VT = experiment: MIC, MRSA SCCmec VT; format: cell-based, methicillin-resistant Staphylococcus aureus; settings: Staphylococcus aureus, MRSA
[8] = test system: clinical isolated VISA strain; experiment: MIC, VISA; format: cell-based, vancomycin-intermediate Staphylococcus aureus
VRSA (SJC1200) = experiment: MIC, VRSA; format: cell-based, vancomycin-resistant Staphylococcus aureus
S. aureus NCTC 8325 [9] = format: cell-based, Staphylococcus aureus; settings: sub-inhibitory concentration for 30 consecutive days
[10] = MRSA (ATCC 43300), read-out: MIC

Compound: CCCCCCCCCC(=O)N[C@@H](Cc1c[nH]c2ccccc12)C(=O)N[C@H](CC(N)=O)C(=O)N[C@@H](CC(=O)O)C(=O)N[C@@H]1C(=O)NCC(=O)N[C@@H](CCCN)C(=O)N[C@@H](CC(=O)O)C(=O)N[C@H](C)C(=O)N[C@@H](CC(=O)O)C(=O)NCC(=O)N[C@H](CO)C(=O)N[C@@H]([C@H](C)CC(=O)O)C(=O)N[C@@H](CC(=O)c2ccccc2N)C(=O)O[C@@H]1C [Daptomycin]
- MBEC (MRSA (ATCC 43300) [1]): 1024 mg/L
- MIC (MRSA (ATCC 43300) [2]; [10]): 0.5 µg/mL (≈ 0.309 µM)

Compound: O=C(Nc1cc(Cl)cc(Cl)c1)C(CCCl)C(=O)Nc1ccc(Cl)c(C(F)(F)F)c1 (stereo not drawn) [SC5035, N^1-(4-chloro-3-(trifluoromethyl)phenyl)-2-(2-chloroethyl)-N^3-(3,5-dichlorophenyl)malonamide]
- MIC (S. aureus NCTC 8325 [3]; Staphylococcus aureus, MSSA NCTC 8325, Table 6, read-out: MIC): 0.25 µg/mL (≈ 0.512 µM)
- MIC (MRSA ATCC 33592; MRSA ATCC 33592, Table 6, read-out: MIC): 0.25 µg/mL (≈ 0.512 µM)
- incorporation signal in DNA, RNA, protein and cell wall biosynthesis (S. aureus NCTC 8325 [4]): lower signal in all four macromolecule biosynthesis pathway
- intracellular ATP levels (S. aureus NCTC 8325 [5]): significantly dropped
- propidium iodide staining (membrane integrity) (S. aureus NCTC 8325 [6]): can be stained by propidium iodide
- hemolysis of RBC (human red blood cells): no significant hemolysis
- LDH level released into culture medium (Human HT-29 cells): no significant increase in the LDH level

Compound: CC(=O)NC[C@H]1CN(c2ccc(N3CCOCC3)c(F)c2)C(=O)O1 [Linezolid]
- MBEC (MRSA (ATCC 43300) [1]): >1024 mg/L
- MBEC (MRSA (ATCC 43300) [1]; listed as linezolid): 1024 mg/L
- MIC (MRSA (ATCC 43300) [2]; [10]): 1 µg/mL (≈ 2.96 µM)

Compound: Triton X-100 [reference compound]
- propidium iodide staining (membrane integrity) (S. aureus NCTC 8325 [6]): can be stained by propidium iodide

Compound: CN[C@H](CC(C)C)C(=O)N[C@H]1C(=O)N[C@@H](CC(N)=O)C(=O)N[C@H]2C(=O)N[C@H]3C(=O)N[C@H](C(=O)N[C@H](C(=O)O)c4cc(O)cc(O)c4-c4cc3ccc4O)[C@H](O)c3ccc(c(Cl)c3)Oc3cc2cc(c3O[C@@H]2O[C@H](CO)[C@@H](O)[C@H](O)[C@H]2O[C@H]2C[C@](C)(N)[C@H](O)[C@H](C)O2)Oc2ccc(cc2Cl)[C@H]1O [Vancomycin, reference compound]
- MIC (S. aureus NCTC 8325 [3]; S. aureus (NCTC 8325), Table 3): 0.5 µg/mL (≈ 0.345 µM)
- MIC (S. aureus NCTC 8325 [3]; Staphylococcus aureus, NCTC8325): 0.5 µg/mL (≈ 0.345 µM)
- MIC [7]: 1 µg/mL (≈ 0.69 µM)
- MIC (MRSA ATCC 33592): 1 µg/mL (≈ 0.69 µM)
- MIC (MRSA ATCC 49476): 1 µg/mL (≈ 0.69 µM)
- MIC (MRSA SCCmec VT): 1 µg/mL (≈ 0.69 µM)
- MIC ([8]; Staphylococcus aureus, VISA): 4 µg/mL (≈ 2.76 µM)
- increase in the value of MIC ([8]; VISA compared to vancomycin-susceptible S. aureus (VSSA)): 4 fold
- MIC (VRSA (SJC1200); Staphylococcus aureus, VRSA): 512 µg/mL (≈ 353 µM)
- decrease in the susceptibility (VRSA (SJC1200); VRSA compared to VSSA): over five-hundred decrease in the susceptibility
- MBEC (MRSA (ATCC 43300) [1]): 1024 mg/L
- MBEC (MRSA (ATCC 43300) [1]; listed as vancomycin): > 1024 mg/L
- MIC (MRSA (ATCC 43300) [2]): 1 µg/mL (≈ 0.69 µM)
- fold MIC change (resistance) (S. aureus NCTC 8325 [9]): 4 fold

— patent publication US10800732B2, “Substituted malonamides and their use as antibacterial drugs” (National Taiwan University, priority 2015, dated 2020)
